By Ki is commonly meant the equilibrium dissociation constant of an inhibitor or competing ligand from its target. A high value points to weaker binding.

Experimental findings from BindingDB's records for doi:10.1002/(SICI)1098-2396(200002)35:2<79::AID-SYN1>3.0.CO;2-X (Institut De Recherches Servier, 2000) are described below.

Structures are written as SMILES. Values joined by “and” are separate entries in the source; they are usually repeats but may differ in a detail not shown here. Equal values may be shown once.

The target of assay [1] is T1, Alpha-2A adrenergic receptor (Homo sapiens, UniProt P08913).
T1 sequence (P08913 whole entry): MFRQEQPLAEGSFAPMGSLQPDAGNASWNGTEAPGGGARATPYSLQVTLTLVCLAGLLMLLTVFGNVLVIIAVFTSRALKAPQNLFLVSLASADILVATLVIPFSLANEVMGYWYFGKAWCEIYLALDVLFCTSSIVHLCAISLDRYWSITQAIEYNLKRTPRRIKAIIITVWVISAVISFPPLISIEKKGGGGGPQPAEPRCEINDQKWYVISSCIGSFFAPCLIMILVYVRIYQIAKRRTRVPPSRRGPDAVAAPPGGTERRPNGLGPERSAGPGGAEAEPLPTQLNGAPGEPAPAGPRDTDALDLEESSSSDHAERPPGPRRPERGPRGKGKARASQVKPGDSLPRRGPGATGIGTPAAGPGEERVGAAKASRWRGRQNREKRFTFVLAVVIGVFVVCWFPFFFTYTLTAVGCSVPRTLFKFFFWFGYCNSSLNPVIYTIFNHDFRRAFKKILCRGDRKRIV

For assay [2], the target named is T2, 5-hydroxytryptamine receptor 2C (Sus scrofa, UniProt K7GSR7).
T2 sequence (K7GSR7 whole entry): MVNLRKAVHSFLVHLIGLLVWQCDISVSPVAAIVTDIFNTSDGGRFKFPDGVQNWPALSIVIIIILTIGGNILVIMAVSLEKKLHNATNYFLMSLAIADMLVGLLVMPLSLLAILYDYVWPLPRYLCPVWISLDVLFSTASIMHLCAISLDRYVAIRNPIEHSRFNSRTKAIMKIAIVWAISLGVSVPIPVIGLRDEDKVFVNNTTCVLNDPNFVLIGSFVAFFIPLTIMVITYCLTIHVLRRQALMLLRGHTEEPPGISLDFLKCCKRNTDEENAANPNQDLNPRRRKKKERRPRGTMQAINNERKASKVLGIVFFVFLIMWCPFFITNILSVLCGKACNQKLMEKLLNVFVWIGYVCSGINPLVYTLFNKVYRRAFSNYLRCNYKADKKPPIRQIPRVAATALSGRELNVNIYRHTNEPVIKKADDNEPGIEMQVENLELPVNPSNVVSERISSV

In assay [3] the target is 5-hydroxytryptamine receptor 1B (Cavia porcellus, UniProt O08892).
For assay [4], the target named is T3, 5-hydroxytryptamine receptor 3A (Mus musculus, UniProt P23979).
T3 sequence (P23979 whole entry): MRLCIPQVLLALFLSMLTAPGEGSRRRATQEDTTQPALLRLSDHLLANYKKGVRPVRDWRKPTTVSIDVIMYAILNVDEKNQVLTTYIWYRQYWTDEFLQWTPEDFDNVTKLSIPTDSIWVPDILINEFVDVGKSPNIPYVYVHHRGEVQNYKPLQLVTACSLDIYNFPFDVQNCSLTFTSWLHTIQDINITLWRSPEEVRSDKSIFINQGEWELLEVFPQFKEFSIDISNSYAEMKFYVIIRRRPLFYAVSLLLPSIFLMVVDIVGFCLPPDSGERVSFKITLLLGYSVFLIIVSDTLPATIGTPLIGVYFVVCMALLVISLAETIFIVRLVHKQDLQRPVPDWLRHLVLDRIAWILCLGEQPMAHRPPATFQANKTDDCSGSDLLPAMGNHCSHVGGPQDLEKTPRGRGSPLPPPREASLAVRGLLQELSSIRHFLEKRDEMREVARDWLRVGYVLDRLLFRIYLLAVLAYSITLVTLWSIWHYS

The target in assay [5] is 5-hydroxytryptamine receptor 1D (Homo sapiens, UniProt P28221).
A further assay concerns the target D(2) dopamine receptor (Homo sapiens, UniProt P14416).

Chain of 5-hydroxytryptamine receptor 1D (P28221 whole entry): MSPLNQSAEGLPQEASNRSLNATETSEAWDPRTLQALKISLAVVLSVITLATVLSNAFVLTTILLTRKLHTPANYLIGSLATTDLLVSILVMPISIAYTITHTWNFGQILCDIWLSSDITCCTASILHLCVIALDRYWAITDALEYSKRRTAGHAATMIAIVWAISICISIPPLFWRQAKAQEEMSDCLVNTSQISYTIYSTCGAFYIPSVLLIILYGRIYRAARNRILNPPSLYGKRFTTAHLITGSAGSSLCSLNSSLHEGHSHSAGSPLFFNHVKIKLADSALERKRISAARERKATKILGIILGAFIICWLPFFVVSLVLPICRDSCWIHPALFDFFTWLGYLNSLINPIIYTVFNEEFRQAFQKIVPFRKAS
Chain of 5-hydroxytryptamine receptor 1B (O08892 whole entry): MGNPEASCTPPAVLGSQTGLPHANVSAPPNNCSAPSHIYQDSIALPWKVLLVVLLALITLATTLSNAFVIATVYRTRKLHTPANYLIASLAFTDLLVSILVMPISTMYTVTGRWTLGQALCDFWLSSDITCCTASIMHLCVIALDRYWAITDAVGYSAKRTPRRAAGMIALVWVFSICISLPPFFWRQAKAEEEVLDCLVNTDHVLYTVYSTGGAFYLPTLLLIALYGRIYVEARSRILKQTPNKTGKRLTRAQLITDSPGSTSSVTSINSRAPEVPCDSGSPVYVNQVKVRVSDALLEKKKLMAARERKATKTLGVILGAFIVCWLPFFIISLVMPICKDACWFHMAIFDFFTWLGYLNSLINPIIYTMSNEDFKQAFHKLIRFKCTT
Chain of D(2) dopamine receptor (P14416 whole entry): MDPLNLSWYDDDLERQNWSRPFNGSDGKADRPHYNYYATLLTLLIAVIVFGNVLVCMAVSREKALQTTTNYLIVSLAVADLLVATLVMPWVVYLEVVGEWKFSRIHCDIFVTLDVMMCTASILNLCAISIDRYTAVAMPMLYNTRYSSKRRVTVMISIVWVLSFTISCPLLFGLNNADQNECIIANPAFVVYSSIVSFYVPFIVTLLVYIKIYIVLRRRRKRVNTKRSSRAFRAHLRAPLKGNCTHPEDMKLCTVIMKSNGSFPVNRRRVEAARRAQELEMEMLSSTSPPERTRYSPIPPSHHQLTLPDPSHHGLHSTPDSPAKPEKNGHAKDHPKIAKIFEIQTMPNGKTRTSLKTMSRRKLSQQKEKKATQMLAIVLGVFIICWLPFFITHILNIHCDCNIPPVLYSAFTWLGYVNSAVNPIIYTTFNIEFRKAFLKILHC

Turning to `COC1(C2=NCCN2)COc2ccccc2O1` (configuration not stated) [RX821002], the Ki in assay [1] turned out to be 0.001 µM.

With `NCCc1c[nH]c2ccccc12` [1H-indole-3-ethanamine], in assay [2], the Ki worked out at 0.0794 µM.

`NCCc1c[nH]c2ccc(O)cc12` [[3H]-5-HT]: in assay [3], the affinity corresponds to a Ki of 0.00251 µM.

`Cc1nccn1CC1CCc2c(c3ccccc3n2C)C1=O` (configuration not stated) [NSC_68647] registered a Ki in assay [4] of 0.00398 µM.

Consider `COC(=O)[C@@H]1[C@H]2C[C@H]3c4[nH]c5ccccc5c4CCN3C[C@@H]2CC[C@@H]1O` [yohimbic acid methyl ester], for which the Ki in assay [5] was 0.0199 µM and 0.0251 µM; in assay [3], 0.0501 µM; at D(2) dopamine receptor, 0.398 µM.
